Test results: patent US6911470B1, “Polyoxometalate compounds as antiviral agents” (priority 1988, dated 2005)
Like-named read-outs stand apart in the source and are kept apart here.

Legend:
HIV-1 (strain LAV-1) = assay: microbe, parasite or virus in culture; type: cell-based
Procedure: Cells. Human peripheral blood mononuclear cells (PBMC) from healthy HIV-1 seronegative and hepatitis B virus seronegative donors were isolated by Ficoll-Hypaque discontinuous gradient centrifugation at 1,000×g for 30 minutes, washed twice in phosphate-buffered saline (pH 7.2; PBS), and pelleted at 300×g for 10 minutes. Before infection, the cells were stimulated by phytohemagglutinin (PHA) at a concentration of 6 μg/ml for three days in RPMI 1640 medium supplemented with 15% heat-inactivated fetal calf serum, 1.5 mM L-glutamine, penicillin (100 U/ml), streptomycin (100 μg/ml), and 4mM sodium bicarbonate buffer.
Viruses. HIV-1 (strain LAV-1) was obtained from Dr. P. Feorino (Centers for Disease Control, Atlanta, Ga.). The virus was propagated in human PBMC using RPMI 1640 medium, as described previously (McDougal et al, J. Immun. Meth. 76, 171-183, 1985) without PHA and supplemented with 7% v/v interleukin-2 (Advanced Biotechnologies, Silver Spring, Md.), 7 μg/ml DEAE-dextran (Pharmacia, Uppsala, Sweden), and 370 U/ml anti-human leucocyte (alpha) interferon (ICN, Lisle, Ill.). Virus obtained from cell-free culture supernatant was titrated and stored in aliquots at −80° C. until use.
Inhibition of virus replication in human PBMC. Uninfected PHA-stimulated human PBMC were uniformly distributed among 25 cm^2 flasks to give a 5 ml suspension containing about 2×10^6 cells/ml. Suitable dilutions of virus were added to infect the cultures. The mean reverse transcriptase (RT) activity of the inocula was 50,000 decompositions per min/ml corresponding to about 100 TCID50, as determined by Groopman et al. (Groopman et al, AIDS Res. Human Retro. 3, 71-85, 1987. The drugs at twice their final concentrations in 5 ml of RPMI 1640 medium, supplemented as described above, were added to the cultures. Uninfected and untreated PBMC at equivalent cell densities were grown in parallel as controls. The cultures were maintained in a humidified 5% CO2-95% air incubator at 37° C. for six days after infection, at which point all cultures were sampled for supernatant reverse transcriptase (RT) activity.
RT activity assay. Six ml supernatant from each culture was clarified from cells at 300×g for 10 minutes. Virus particles were pelleted from 5 ml samples at 40,000 rpm for 30 minutes using a Beckman 70.1 Ti rotor and suspended in 200 μl of virus disrupting buffer (50 mM Tris-Cl, pH 7.8, 800 mM NaCl, 20% glycerol, 0.5 mM phenylmethyl sulfonyl fluoride, and 0.5% Triton X-100).
The RT assay was performed in 96-well microtiter plates, as described by Spira et al. (Spira et al, J. Clin. Microbiol. 22, 97-99, 1987). The reaction mixture, which contained 50 mM Tris-Cl pH 7.8, 9 mM MgCl2, 5 mM dithiothreitol (DTT), 4.7 μg/ml (rA)n. (dT)12-18, 140 μM dATP, and 0.22 μM [^3H]TTP, specific activity 78.0 Ci/mmol, equivalent to 17,300 cpm/pmol; NEN Research Products, Boston, Mass., was added to each well. The sample (20 μl) was added to the reaction mixture which was then incubated at 37° C. for 2 hours. The reaction was terminated by the addition of 100 μl 10% trichloroacetic acid (TCA) containing 0.45 mM sodium pyrophosphate. The acid-insoluble nucleic acids which precipitated were collected on glass filters using a Skatron semi-automatic harvester. The filters were washed with 5% TCA and 70% ethanol, dried, and placed in scintillation vials. Four ml of scintillation fluid (Econofluor, NEN Research Products, Boston, Mass.) were added and the amount of radioactivity in each sample was determined using a Packard Tri-Carb liquid scintillation analyzer (model 2,000CA). The results were expressed in dpm/ml of original clarified supernatant.
Median-effect method. Dose-effect relationships were analyzed by the median-effect equation (Chou et al, Adv. Enz. Regul. 22, 27-55, 1984).

human PBM cells = assay: Cytotoxicity assay on uninfected PHA stimulated human PBMC (trypan blue); type: cell-based; conditions: Table 1; read-out: IC50 Toxicity in Human PBM Cells
Procedure: Cells. […] PBS), and pelleted at 300×g for 10 minutes. […] Cytotoxicity assay. The drugs were evaluated for their potential toxic effects on uninfected PHA stimulated human PBMC. Flasks were seeded so that the final cell concentration was 2×10^5 cells/ml. The cells were cultured with and without drug for 6 days, at which time aliquots were counted for cell viability, as assessed by the trypan blue dye-exclusion method using a hemacytometer. The median inhibitory concentration (IC50) was calculated using the median effect method (Chou et al, Elsevier-Biosoft, Elsevier Science Publishers, Cambridge, U.K., 1985; Chou et al, Adv. Enz. Regul. 22, 27-55, 1984). Median-effect method. Dose-effect relationships were analyzed by the median-effect equation (Chou et al, Adv. Enz. Regul. 22, 27-55, 1984). The slope (m) and median effective and inhibitory concentration (EC50 and IC50) values were obtained by using a computer program developed by Chou and Chou (Chou et al, Elsevier-Biosoft, Elsevier Science Publishers, Cambridge, U.K., 1985).

[1] = Comparison of toxicity of polyoxometalate compounds in mice (mortality, haematology); type: in vivo; set-up: MCV (mean corpuscular volume): unit not given here; conditions: BID × 6, 60 mkd i.p.
From the text: Comparison of Toxicity of Polyoxometalate Compounds Mice.
In vivo antiviral experiments. […] Treatment was continued daily for 6 or 10 days.

[2] = system: human granulocyte-macrophage precursor cells; type: cell-based
From the text: Preparation of Cells. Human bone marrow cells were collected by aspiration from the posterior iliac crest of normal healthy volunteers, treated with heparin and the mononuclear population separated by Ficoll-Hypaque gradient centrifugation. Cells were washed twice in Hanks balanced salt solution, counted with a hemacytometer and their viability was >98% as assessed by trypan blue exclusion.
Assay of Colony-Forming Unit Granulocyte-Macrophage (CFU-GM) for Drug Cytotoxicity. The culture assay for CFU-GM was performed using a bilayer soft-agar method as recently described (Sommadossi et al, Antimicrob. Agents Chemother. 31, 452-454, 1987). McCoy 5A nutrient medium supplemented with 15% dialyzed fetal bovine serum (heat inactivated at 56° C. for 30 min.) (Gibco Laboratories, Grand Island, N.Y.) was used in all experiments. This medium was completely lacking in thymidine and uridine. Cells were cloned in 0.3% agar in the presence of increasing concentrations of the modulating compound or in medium alone (control). After 14 days of incubation at 37° C. in a humidified atmosphere of 5% CO2 in air, colonies (≧50 cells) were counted using an inverted microscope.
The toxicities of a variety of polyoxometalates with respect to human bone marrow cells (human granulocyte-macrophage precursor cells) were assessed.

[3] = reason it must be taken intravenously; cited from earlier work
human bone marrow cells = conditions: background statement; cited from earlier work
[4] = background statement; AZT in a clinical setting; cited from earlier work
[5] = biological target: T1, HIV-1 reverse transcriptase (Human immunodeficiency virus type 1 group M subtype B, UniProt P04585); assay: Evaluation of compounds on purified retroviral RT (cell-free, virion-derived); type: biochemical; conditions: Table 2; read-out: EC-50 Cell-Free RT (virion-derived)
T1 construct: HIV-1 RT was isolated from detergent disrupted virions; made in house; host or cells: virions pelleted from culture fluid of HIV-1-infected PHA-stimulated human PBMC; DEAE-cellulose and phosphocellulose chromatography
Procedure: Evaluation of compounds on purified retroviral RT. HIV-1 RT was isolated from detergent disrupted virions obtained from the cell-free supernatant of infected PHA-stimulated PBMC. The enzyme was purified by passing the extract through ion-exchange chromatography columns, as described previously (Eriksson et al, Antimicrob. Agents Chemother. 31, 600-604, 1977. Briefly, 750 ml of culture fluid harvested from HIV-1-infected PBMC were ultracentrifuged to pellet the virus. The pellet was dissolved in buffer A [50 mM Tris-HCl, pH 7.9/0.25% Nonidet P-40/5 mM dithiothreitol/20% (vol/vol) glycerol] containing 1 mM EDTA, and freeze-thawed four times. After clarification by centrifugation, the enzyme was partially purified from the supernatant by passing the extract through a DEAE-cellulose column (Whatman DE-52; 2.6×15 cm) previously equilibrated with buffer B (50 mM Tris-Cl, pH 7.9, 50 mM KCl, 1 mM EDTA, 1 mM dithiothreitol, 20% glycerol). Elution was performed using a linear gradient 50-500 mM KCl in buffer B. Fractions containing enzyme activity were dialyzed against buffer B and were further purified on a phosphocellulose column (Whatman P-11) using a linear KCl (50-500 mM) gradient in buffer B. The peak fractions were pooled and dialyzed against buffer B. The enzyme was characterized as HIV-1 reverse transcriptase based on its cation, salt, pH, and template requirements according to previous descriptions (Eriksson et al, Antimicrob. Agents Chemother. 31, 600-604, 1977). The standard reaction mixture was used to evaluate the inhibitory effect of the drugs, as previously described (Eriksson et al, Antimicrob. Agents Chemother. 31, 600-604, 1977). Briefly, the reaction mixtures (final volume 100 μl) contained 100 mM Tris-HCl, pH 8.0, 50 mM KCl, 2 mM MgCl2, 5 mM DTT, 400 ug/ml bovine serum albumin, 3 μg/ml (rA)·(dT)12-18 and 1 μM of [^3H]TTP (specific activity 82.3 Ci/mmol). The reactions were started by the addition of 10 μl of partially purified RT, incubated at 37° C. for 60 min., and processed as previously described (Eriksson et al, Antimicrob. Agents Chemother. 31, 600-604, 1977).
Median-effect method. Dose-effect relationships were analyzed by the median-effect equation (Chou et al, Adv. Enz. Regul. 22, 27-55, 1984). The slope (m) and median effective and inhibitory concentration (EC50 and IC50) values were obtained by using a computer program developed by Chou and Chou (Chou et al, Elsevier-Biosoft, Elsevier Science Publishers, Cambridge, U.K., 1985).

[6] = system: Mouse Ecotropic, CNS (CAS-Br-M); assay: UV/XC assay for murine retroviruses in SC-1 cells; type: cell-based, murine retrovirus; conditions: Table 2; read-out: EC-50 Mouse Ecotropic, CNS (CAS-Br-M)
Procedure: UV/XC Assay for Murine Retroviruses Cells. Mouse embryo fibroblasts (SC-1) and XC cells were obtained from the American Type Culture Collection, Rockville, Md. […] The cells were maintained in Eagle's minimum essential medium with Hanks balanced salt solution, supplemented with penicillin (100 U/ml), streptomycin (100 μg/ml), sodium bicarbonate (24 mM), Hepes (25 mM), and either 2 (maintenance) or 10 (growth) percent inactivated newborn or fetal calf serum.
Virus quantitation by UV-XC assay. The XC test (Rowe et al, Virology 42, 1136-1139, 1970) is a plaque-type of assay which tests for the presence and titer of B- and N-tropic murine leukemia viruses. Because these viruses produce no overt signs of infection of SC-1 mouse cells, it is necessary to overlay the virus producing culture with an indicator cell line, XC. The number of syncytia that are produced is a direct measure of the virus titer in FFU.
Six-well plates were seeded with 1×10^5 SC-1 mouse cells on the first day. On the following day the medium was removed and the inoculum (0.2 ml) was added in medium containing polybrene (4 μg/ml). For determining the antiviral activity of the compounds in culture, the virus dilution selected produced in untreated cultures about 80 foci per well. […] Control cells without virus but receiving the drug provided an estimate of the drug's toxic effects as quantitated by using trypan blue staining.

[7] = Table 2, several values per cell, some in brackets, read-out: EC-50 HIV-1 (LAV-1)

Row | Substance | EC50 (HIV-1 (strain LAV-1); Table 1, read-out: EC50 Anti-HIV-1 Activity in Human PBM Cells) | EC50 (HIV-1 (strain LAV-1); [7]) | IC50 (human PBM cells) | Hct (hematocrit) ([1]; bled on day 17) | Hgb (hemaglobin) ([1]; bled on day 17) | MCH ([1]; bled on day 17) | MCHC (mean corpuscular hemoglobin concentration) ([1]; bled on day 17) | MCV (mean corpuscular volume) ([1]; bled on day 17) | PLT (platelates) (×1000) ([1]; bled on day 17) | RBC (×1000000) ([1]; bled on day 17) | RDW (width of red cells) ([1]; bled on day 17) | WBC (×1000) ([1]; bled on day 17) | Mortality ([1]; dead/total) | toxicity to human bone marrow cells (order of toxicity, FIG. 6) [2] | pH at which it degrades [3] | toxicity to human bone marrow cells (human bone marrow cells) | adverse effect [4] | EC50 [5] | EC50 [6]
1 | (NH4)17Na[NaSbgW21O86] [Formula 1, reference compound] | 390 nM | 290 nM | 35000 nM | 14.82 ± 4.44% | 5.5 ± 1.43 g/dL | 17.64 ± 2.07 pg | 37.66 ± 4.32 g/dL | 46.86 ± 0.4 | 226.4 ×1000 | 3.16 ± 0.95 ×1000000 | 35.6 ± 2.12% | 4.16 ± 1.45 ×1000 | 0/5 | most toxic | < 4 | high toxicity | induces thrombocytopenia |  | 
2 | K5BW12O40 [α-K5BT] |  | 360 nM |  |  |  |  |  |  |  |  |  |  |  |  |  |  |  | 2900 nM | 910 nM
